Data as given in PubChem BioAssay (NCI).
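All cell lines were grown in 96-well plates and treated with compound for 48 hours. Here, GI50 denotes the concentration required for 50% inhibition of growth. The concentration for full growth arrest is given as TGI.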

Experiments:
Assay in all cases: growth of human tumour cells (NCI), 48 h
NCI-H460 lung = tested on: NCI-H460 lung
SW-620 colon = tested on: SW-620 colon
SR leukemia = tested on: SR leukemia
SNB-75 CNS = tested on: SNB-75 CNS
IGROV1 ovarian = tested on: IGROV1 ovarian
SK-MEL-28 melanoma = tested on: SK-MEL-28 melanoma
MDA-MB-435 = tested on: MDA-MB-435
SF-539 CNS = tested on: SF-539 CNS
T-47D breast = tested on: T-47D breast
SF-295 CNS = tested on: SF-295 CNS
NCI-H522 lung = tested on: NCI-H522 lung
HL-60(TB) leukemia = tested on: HL-60(TB) leukemia
KM12 colon = tested on: KM12 colon
OVCAR-4 ovarian = tested on: OVCAR-4 ovarian
SK-OV-3 ovarian = tested on: SK-OV-3 ovarian
RXF 393 renal = tested on: RXF 393 renal
MALME-3M melanoma = tested on: MALME-3M melanoma
A498 renal = tested on: A498 renal
HCT-15 colon = tested on: HCT-15 colon
CCRF-CEM leukemia = tested on: CCRF-CEM leukemia
U251 CNS = tested on: U251 CNS
DU-145 prostate = tested on: DU-145 prostate
TK-10 renal = tested on: TK-10 renal
BT-549 breast = tested on: BT-549 breast
CAKI-1 renal = tested on: CAKI-1 renal
SK-MEL-5 melanoma = tested on: SK-MEL-5 melanoma
HCT-116 colon = tested on: HCT-116 colon
LOX IMVI melanoma = tested on: LOX IMVI melanoma
UO-31 renal = tested on: UO-31 renal
K-562 leukemia = tested on: K-562 leukemia
MDA-MB-231 breast = tested on: MDA-MB-231 breast
SNB-19 CNS = tested on: SNB-19 CNS
HT29 colon = tested on: HT29 colon
NCI-H226 lung = tested on: NCI-H226 lung
SF-268 CNS = tested on: SF-268 CNS
OVCAR-5 ovarian = tested on: OVCAR-5 ovarian
SN12C renal = tested on: SN12C renal
SK-MEL-2 melanoma = tested on: SK-MEL-2 melanoma
HOP-62 NSCLC = tested on: HOP-62 NSCLC
OVCAR-3 ovarian = tested on: OVCAR-3 ovarian
M14 melanoma = tested on: M14 melanoma
MOLT-4 leukemia = tested on: MOLT-4 leukemia
NCI/ADR-RES ovarian = tested on: NCI/ADR-RES ovarian
ACHN renal = tested on: ACHN renal
HS 578T breast = tested on: HS 578T breast
786-0 renal = tested on: 786-0 renal
OVCAR-8 ovarian = tested on: OVCAR-8 ovarian
COLO 205 colon = tested on: COLO 205 colon
EKVX NSCLC = tested on: EKVX NSCLC
HCC-2998 colon = tested on: HCC-2998 colon
A549 NSCLC = tested on: A549 NSCLC
PC-3 prostate = tested on: PC-3 prostate
RPMI-8226 leukemia = tested on: RPMI-8226 leukemia
MCF7 breast = tested on: MCF7 breast
UACC-62 melanoma = tested on: UACC-62 melanoma
UACC-257 melanoma = tested on: UACC-257 melanoma
HOP-92 NSCLC = tested on: HOP-92 NSCLC

Cc1ccc(-c2nc(C(Cl)Cl)nc3cc(-c4ccccc4)nn23)cc1
GI50 (NCI-H460 lung): 7.26 µM
TGI (NCI-H460 lung): 30.3 µM
GI50 (SW-620 colon): 9.97 µM
TGI (SW-620 colon): 55.8 µM
GI50 (SR leukemia): 9.91 µM
TGI (SR leukemia): > 100 µM
GI50 (SNB-75 CNS): > 100 µM
TGI (SNB-75 CNS): > 100 µM
GI50 (IGROV1 ovarian): 36.3 µM
TGI (IGROV1 ovarian): > 100 µM
GI50 (SK-MEL-28 melanoma): 27.2 µM
TGI (SK-MEL-28 melanoma): 74.6 µM
GI50 (MDA-MB-435): 25.3 µM
TGI (MDA-MB-435): 98 µM
GI50 (SF-539 CNS): 61.1 µM
TGI (SF-539 CNS): > 100 µM
GI50 (T-47D breast): 28.3 µM
TGI (T-47D breast): > 100 µM
GI50 (SF-295 CNS): 24 µM
TGI (SF-295 CNS): 71.2 µM
GI50 (NCI-H522 lung): 14.5 µM
TGI (NCI-H522 lung): 42.8 µM
GI50 (HL-60(TB) leukemia): 6.5 µM
TGI (HL-60(TB) leukemia): > 100 µM
GI50 (KM12 colon): 17.8 µM
TGI (KM12 colon): 66.4 µM
GI50 (OVCAR-4 ovarian): 17.9 µM
TGI (OVCAR-4 ovarian): 73.1 µM
GI50 (SK-OV-3 ovarian): 20.9 µM
TGI (SK-OV-3 ovarian): 58.7 µM
GI50 (RXF 393 renal): 10.6 µM
TGI (RXF 393 renal): 24 µM
GI50 (MALME-3M melanoma): 23.3 µM
TGI (MALME-3M melanoma): 58.9 µM
GI50 (A498 renal): 17.4 µM
TGI (A498 renal): 38.9 µM
GI50 (HCT-15 colon): 10.5 µM
TGI (HCT-15 colon): 72.3 µM
GI50 (CCRF-CEM leukemia): 47.7 µM
TGI (CCRF-CEM leukemia): > 100 µM
GI50 (U251 CNS): 9.5 µM
TGI (U251 CNS): 34.1 µM
GI50 (DU-145 prostate): 4.21 µM
TGI (DU-145 prostate): 29.7 µM
GI50 (TK-10 renal): 33.3 µM
TGI (TK-10 renal): > 100 µM
GI50 (BT-549 breast): 30.7 µM
TGI (BT-549 breast): > 100 µM
GI50 (CAKI-1 renal): 16.2 µM
TGI (CAKI-1 renal): 58.3 µM
GI50 (SK-MEL-5 melanoma): > 100 µM
TGI (SK-MEL-5 melanoma): > 100 µM
GI50 (HCT-116 colon): 15.6 µM
TGI (HCT-116 colon): > 100 µM
GI50 (LOX IMVI melanoma): 22.4 µM
TGI (LOX IMVI melanoma): > 100 µM
GI50 (UO-31 renal): > 100 µM
TGI (UO-31 renal): > 100 µM
GI50 (K-562 leukemia): 22.4 µM
TGI (K-562 leukemia): > 100 µM
GI50 (MDA-MB-231 breast): 20.5 µM
TGI (MDA-MB-231 breast): > 100 µM
GI50 (SNB-19 CNS): 19.7 µM
TGI (SNB-19 CNS): > 100 µM
GI50 (HT29 colon): 7.41 µM
TGI (HT29 colon): 35.2 µM
GI50 (NCI-H226 lung): 75.2 µM
TGI (NCI-H226 lung): > 100 µM
GI50 (SF-268 CNS): 24.6 µM
TGI (SF-268 CNS): > 100 µM
GI50 (OVCAR-5 ovarian): 24.2 µM
TGI (OVCAR-5 ovarian): > 100 µM
GI50 (SN12C renal): 98.9 µM
TGI (SN12C renal): > 100 µM
GI50 (SK-MEL-2 melanoma): > 100 µM
TGI (SK-MEL-2 melanoma): > 100 µM
GI50 (HOP-62 NSCLC): 16.5 µM
TGI (HOP-62 NSCLC): 62.3 µM
GI50 (OVCAR-3 ovarian): 13.4 µM
TGI (OVCAR-3 ovarian): 31.5 µM
GI50 (M14 melanoma): 20.6 µM
TGI (M14 melanoma): 50.2 µM
GI50 (MOLT-4 leukemia): 18.2 µM
TGI (MOLT-4 leukemia): 96.7 µM
GI50 (NCI/ADR-RES ovarian): 13.5 µM
TGI (NCI/ADR-RES ovarian): > 100 µM
GI50 (ACHN renal): 7.54 µM
TGI (ACHN renal): 31.8 µM
GI50 (HS 578T breast): 56.9 µM
TGI (HS 578T breast): > 100 µM
GI50 (786-0 renal): > 100 µM
TGI (786-0 renal): > 100 µM
GI50 (OVCAR-8 ovarian): 15.3 µM
TGI (OVCAR-8 ovarian): 90.1 µM
GI50 (COLO 205 colon): 10.1 µM
TGI (COLO 205 colon): 23.4 µM
GI50 (EKVX NSCLC): 17.8 µM
TGI (EKVX NSCLC): 57.8 µM
GI50 (HCC-2998 colon): 6.05 µM
TGI (HCC-2998 colon): 20 µM
GI50 (A549 NSCLC): 10 µM
TGI (A549 NSCLC): 28.1 µM
GI50 (PC-3 prostate): 23.7 µM
TGI (PC-3 prostate): > 100 µM
GI50 (RPMI-8226 leukemia): 35.9 µM
TGI (RPMI-8226 leukemia): > 100 µM
GI50 (MCF7 breast): 18.1 µM
TGI (MCF7 breast): > 100 µM
GI50 (UACC-62 melanoma): 81.8 µM
TGI (UACC-62 melanoma): > 100 µM
GI50 (UACC-257 melanoma): 35.3 µM
TGI (UACC-257 melanoma): > 100 µM
GI50 (HOP-92 NSCLC): 23.9 µM
TGI (HOP-92 NSCLC): 79.4 µM
